Assay: Encapsulation efficiency by 1H NMR analysis of nanoparticles
Assay type: physicochemical
Settings: DMF internal standard, DMSO-d6, agent within the nanoparticle delivery system
Experimental: For the ^1H NMR analysis, the nanoparticle suspension was centrifuged at 3214 rcf for 30 min. The supernatant was decanted. DMF was added to the precipitate as the internal reference for ^1H NMR analysis and weighed the amount added. DMSO-d6, was added and heated to 60° C. to dissolve the sample. The ^1H NMR was performed at 60° C.

Row | encapsulation efficiency [%] | Structure (SMILES)
1 | 19 | CCCCCCCC/C=C\CCCCCCCC(=O)O [oleic acid]
2 | 42.7 | CCC(=O)OC/C=C(C)/C=C/C=C(C)/C=C/C1=C(C)CCCC1(C)C [vitamin A-propionate, retinyl propionate]

From patent US20230017661A1, “COMPOSITIONS AND MODULAR NANO- AND MICROPARTICLES FOR THE DELIVERY OF VARIOUS AGENTS AND USE THEREOF” (Veri Nano Inc., priority 2019, published 2023)
